Test results taken from ChEMBL document CHEMBL3137667, “[Drug-induced liver injury; fourteenth updated edition of the bibliographic database of liver injuries and related drugs]” (Gastroenterol Clin Biol, 2004).

Key:
[1] = Highest frequency of acute liver toxicity observed during clinical trials, expressed as a percentage. [column '% AIGUE' in source]; conditions: human
[2] = human
[3] = human; remark: listed apart in the source
[4] = human, serum
[5] = human; remark: listed apart in the source
[6] = human; remark: listed apart in the source
[7] = human; remark: listed apart in the source
[8] = human, serum, 4383 h
[9] = human; remark: listed apart in the source
[10] = human; remark: listed apart in the source
[11] = human; remark: listed apart in the source
[12] = Highest frequency of moderate liver toxicity observed during clinical trials, expressed as a percentage. [column '% BIOL' in source]; conditions: human
[13] = human, serum; remark: listed apart in the source
[14] = human; remark: listed apart in the source
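Throughout, for Hepatotoxicity (association with vascular disease): count of indexed literature references reporting vascular liver injury in humans, e.g. peliosis hepatitis, hepatic veno-occlusive disease or Budd-Chiari syndrome.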
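Throughout, for Hepatotoxicity (benign tumour): value is a count of indexed literature references citing a benign tumour confirmed by histopathology.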
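Throughout, for Hepatotoxicity (choleostasis): human cholestatic liver injury, shown by histopathology or by peak ALT or AST elevation over alkaline phosphatase ratio below 2, value counts indexed literature reports.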
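Throughout, for Hepatotoxicity (chronic liver disease): chronic liver injury confirmed by histopathology or persistently raised serum aminotransferase activity beyond 6 months, value given as the count of indexed literature references.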
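Throughout, for Hepatotoxicity (cirrhosis): value is a count of indexed literature references reporting cirrhosis confirmed by histopathology.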
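Throughout, for Hepatotoxicity (cytolytic): human cytolytic liver injury, shown by histopathology or by a ratio above 5 of peak ALT or AST elevation to alkaline phosphatase elevation, value counts indexed references.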
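Throughout, for Hepatotoxicity (granulomatous hepatitis): value is a count of indexed literature references reporting granulomatous liver disease confirmed by histopathology.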
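Throughout, for Hepatotoxicity (malignant tumour): malignant tumour confirmed by histopathology, value gives the count of indexed literature references reporting it.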
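Throughout, for Hepatotoxicity (severe hepatitis): human clinical data: severe hepatitis, meaning potentially life-threatening liver failure or clinically observed cases, the value counts how many indexed literature references report it.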
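Throughout, for Hepatotoxicity (steatosis): steatosis confirmed by histopathology, value is the count of indexed references.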

With CCC(=O)NS(=O)(=O)c1ccc(-c2c(-c3ccccc3)noc2C)cc1 [PARECOXIB] the “Hepatotoxicity (acute)” value [1] was 0%, the “Hepatotoxicity (choleostasis)” value [2] was 0 and the “Hepatotoxicity (cytolytic)” value [3] was 0. For the same molecule, the “Hepatotoxicity (acute)” value [4] was 0, the “Hepatotoxicity (granulomatous hepatitis)” value [5] was 0 and the “Hepatotoxicity (association with vascular disease)” value [6] was 0. The “Hepatotoxicity (benign tumour)” value [7] was 0, the “Hepatotoxicity (chronic liver disease)” value [8] was 0 and the “Hepatotoxicity (malignant tumour)” value [9] was 0. For the same molecule, the “Hepatotoxicity (severe hepatitis)” value [10] was 0, the “Hepatotoxicity (steatosis)” value [11] was 0 and the “Hepatotoxicity (moderate)” value [12] was 6.5%. The “Hepatotoxicity (moderate)” value [13] was 1 and the “Hepatotoxicity (cirrhosis)” value [14] was 0.
For CCOC(=O)[C@H](CCc1ccccc1)N[C@@H](C)C(=O)N1[C@H](C(=O)O)C[C@@H]2CCC[C@@H]21, the “Hepatotoxicity (acute)” value [1] was 0%, the “Hepatotoxicity (choleostasis)” value [2] was 0 and the “Hepatotoxicity (cytolytic)” value [3] was 0. The “Hepatotoxicity (acute)” value [4] was 1, the “Hepatotoxicity (granulomatous hepatitis)” value [5] was 0 and the “Hepatotoxicity (association with vascular disease)” value [6] was 0. The “Hepatotoxicity (benign tumour)” value [7] was 0, the “Hepatotoxicity (chronic liver disease)” value [8] was 0 and the “Hepatotoxicity (malignant tumour)” value [9] was 0. The “Hepatotoxicity (severe hepatitis)” value [10] was 0, the “Hepatotoxicity (steatosis)” value [11] was 0 and the “Hepatotoxicity (moderate)” value [12] was 1.3%. The “Hepatotoxicity (moderate)” value [13] was 3 and the “Hepatotoxicity (cirrhosis)” value [14] was 0.
In the case of Cn1nnc2c(C(N)=O)ncn2c1=O [TEMOZOLOMIDE], the “Hepatotoxicity (acute)” value [1] is reported as 3%, the “Hepatotoxicity (choleostasis)” value [2] is reported as 0 and the “Hepatotoxicity (cytolytic)” value [3] is reported as 1. The “Hepatotoxicity (acute)” value [4] was 1, the “Hepatotoxicity (granulomatous hepatitis)” value [5] was 0 and the “Hepatotoxicity (association with vascular disease)” value [6] was 0. The “Hepatotoxicity (benign tumour)” value [7] was 0, the “Hepatotoxicity (chronic liver disease)” value [8] was 0 and the “Hepatotoxicity (malignant tumour)” value [9] was 0. The “Hepatotoxicity (severe hepatitis)” value [10] was 0, the “Hepatotoxicity (steatosis)” value [11] was 0 and the “Hepatotoxicity (moderate)” value [12] was 47.5%. The “Hepatotoxicity (moderate)” value [13] was 1 and the “Hepatotoxicity (cirrhosis)” value [14] was 0.
In the case of CSCC[C@H](N)C(=O)O [METHIONINE], the “Hepatotoxicity (acute)” value ([1]; Liver) is reported as 0%, the “Hepatotoxicity (choleostasis)” value ([2]; Liver) is reported as 0 and the “Hepatotoxicity (cytolytic)” value ([3]; Liver) is reported as 1. The “Hepatotoxicity (acute)” value [4] was 2, the “Hepatotoxicity (granulomatous hepatitis)” value ([5]; Liver) was 0 and the “Hepatotoxicity (association with vascular disease)” value [6] was 0. The “Hepatotoxicity (benign tumour)” value [7] was 0, the “Hepatotoxicity (chronic liver disease)” value [8] was 0 and the “Hepatotoxicity (malignant tumour)” value [9] was 0. For the same molecule, the “Hepatotoxicity (severe hepatitis)” value ([10]; Liver) was 0, the “Hepatotoxicity (steatosis)” value [11] was 0 and the “Hepatotoxicity (moderate)” value ([12]; Liver) was 0%. The “Hepatotoxicity (moderate)” value [13] was 1 and the “Hepatotoxicity (cirrhosis)” value [14] was 0.
With COCC1=C(C(=O)O)N2C(=O)[C@@H](NC(=O)/C(=N\OC)c3csc(N)n3)[C@H]2SC1 [CEFPODOXIME] the “Hepatotoxicity (acute)” value [1] was 0%, the “Hepatotoxicity (choleostasis)” value [2] was 0 and the “Hepatotoxicity (cytolytic)” value [3] was 0. The “Hepatotoxicity (acute)” value [4] was 0, the “Hepatotoxicity (granulomatous hepatitis)” value [5] was 0 and the “Hepatotoxicity (association with vascular disease)” value [6] was 0. The “Hepatotoxicity (benign tumour)” value [7] was 0, the “Hepatotoxicity (chronic liver disease)” value [8] was 0 and the “Hepatotoxicity (malignant tumour)” value [9] was 0. For the same molecule, the “Hepatotoxicity (severe hepatitis)” value [10] was 0, the “Hepatotoxicity (steatosis)” value [11] was 0 and the “Hepatotoxicity (moderate)” value [12] was 33.3%. The “Hepatotoxicity (moderate)” value [13] was 29 and the “Hepatotoxicity (cirrhosis)” value [14] was 0.
With INTERLEUKIN 1BETA the “Hepatotoxicity (acute)” value [1] was 0%, the “Hepatotoxicity (choleostasis)” value [2] was 0 and the “Hepatotoxicity (cytolytic)” value [3] was 0. The “Hepatotoxicity (acute)” value [4] was 0, the “Hepatotoxicity (granulomatous hepatitis)” value [5] was 0 and the “Hepatotoxicity (association with vascular disease)” value [6] was 0. The “Hepatotoxicity (benign tumour)” value [7] was 0, the “Hepatotoxicity (chronic liver disease)” value [8] was 0 and the “Hepatotoxicity (malignant tumour)” value [9] was 0. The “Hepatotoxicity (severe hepatitis)” value [10] was 0, the “Hepatotoxicity (steatosis)” value [11] was 0 and the “Hepatotoxicity (moderate)” value [12] was 75%. The “Hepatotoxicity (moderate)” value [13] was 1 and the “Hepatotoxicity (cirrhosis)” value [14] was 0.
In the case of CC(N)C12CC3CC(CC(C3)C1)C2 (stereo not drawn) [RIMANTADINE], the “Hepatotoxicity (acute)” value [1] is reported as 0%, the “Hepatotoxicity (choleostasis)” value [2] is reported as 0 and the “Hepatotoxicity (cytolytic)” value [3] is reported as 0. The “Hepatotoxicity (acute)” value [4] was 0, the “Hepatotoxicity (granulomatous hepatitis)” value [5] was 0 and the “Hepatotoxicity (association with vascular disease)” value [6] was 0. For the same molecule, the “Hepatotoxicity (benign tumour)” value [7] was 0, the “Hepatotoxicity (chronic liver disease)” value [8] was 0 and the “Hepatotoxicity (malignant tumour)” value [9] was 0. For the same molecule, the “Hepatotoxicity (severe hepatitis)” value [10] was 0, the “Hepatotoxicity (steatosis)” value [11] was 0 and the “Hepatotoxicity (moderate)” value [12] was 1.8%. For the same molecule, the “Hepatotoxicity (moderate)” value [13] was 1 and the “Hepatotoxicity (cirrhosis)” value [14] was 0.
In the case of O=C(O)c1ccccc1C(=O)Nc1ccc(S(=O)(=O)Nc2nccs2)cc1 [PHTHALYLSULFATHIAZOLE], the “Hepatotoxicity (acute)” value [1] is reported as 0%, the “Hepatotoxicity (choleostasis)” value [2] is reported as 0 and the “Hepatotoxicity (cytolytic)” value [3] is reported as 0. The “Hepatotoxicity (acute)” value [4] was 1, the “Hepatotoxicity (granulomatous hepatitis)” value [5] was 0 and the “Hepatotoxicity (association with vascular disease)” value [6] was 0. The “Hepatotoxicity (benign tumour)” value [7] was 0, the “Hepatotoxicity (chronic liver disease)” value [8] was 0 and the “Hepatotoxicity (malignant tumour)” value [9] was 0. For the same molecule, the “Hepatotoxicity (severe hepatitis)” value [10] was 0, the “Hepatotoxicity (steatosis)” value [11] was 0 and the “Hepatotoxicity (moderate)” value [12] was 0%. The “Hepatotoxicity (moderate)” value [13] was 0 and the “Hepatotoxicity (cirrhosis)” value [14] was 0.
For Oc1ccc(Cl)cc1Cc1cc(Cl)ccc1O [DICHLOROPHEN], the “Hepatotoxicity (acute)” value [1] was 0%, the “Hepatotoxicity (choleostasis)” value [2] was 1 and the “Hepatotoxicity (cytolytic)” value [3] was 2. For the same molecule, the “Hepatotoxicity (acute)” value [4] was 2, the “Hepatotoxicity (granulomatous hepatitis)” value [5] was 0 and the “Hepatotoxicity (association with vascular disease)” value [6] was 0. The “Hepatotoxicity (benign tumour)” value [7] was 0, the “Hepatotoxicity (chronic liver disease)” value [8] was 0 and the “Hepatotoxicity (malignant tumour)” value [9] was 0. The “Hepatotoxicity (severe hepatitis)” value [10] was 0, the “Hepatotoxicity (steatosis)” value [11] was 0 and the “Hepatotoxicity (moderate)” value [12] was 0%. The “Hepatotoxicity (moderate)” value [13] was 0 and the “Hepatotoxicity (cirrhosis)” value [14] was 0.
With COC(=O)C1=C(C)NC(C)=C(C(=O)OCC(C)C)C1c1ccccc1[N+](=O)[O-] (stereo not drawn) [NISOLDIPINE] the “Hepatotoxicity (acute)” value [1] was 0%, the “Hepatotoxicity (choleostasis)” value [2] was 0 and the “Hepatotoxicity (cytolytic)” value [3] was 0. The “Hepatotoxicity (acute)” value [4] was 0, the “Hepatotoxicity (granulomatous hepatitis)” value [5] was 0 and the “Hepatotoxicity (association with vascular disease)” value [6] was 0. For the same molecule, the “Hepatotoxicity (benign tumour)” value [7] was 0, the “Hepatotoxicity (chronic liver disease)” value [8] was 0 and the “Hepatotoxicity (malignant tumour)” value [9] was 0. The “Hepatotoxicity (severe hepatitis)” value [10] was 0, the “Hepatotoxicity (steatosis)” value [11] was 0 and the “Hepatotoxicity (moderate)” value [12] was 12.5%. The “Hepatotoxicity (moderate)” value [13] was 1 and the “Hepatotoxicity (cirrhosis)” value [14] was 0.
With CN(C)CCOC1=Cc2ccccc2Sc2ccc(Cl)cc21 [ZOTEPINE] the “Hepatotoxicity (acute)” value [1] was 0%, the “Hepatotoxicity (choleostasis)” value [2] was 0 and the “Hepatotoxicity (cytolytic)” value [3] was 0. The “Hepatotoxicity (acute)” value [4] was 0, the “Hepatotoxicity (granulomatous hepatitis)” value [5] was 0 and the “Hepatotoxicity (association with vascular disease)” value [6] was 0. The “Hepatotoxicity (benign tumour)” value [7] was 0, the “Hepatotoxicity (chronic liver disease)” value [8] was 0 and the “Hepatotoxicity (malignant tumour)” value [9] was 0. The “Hepatotoxicity (severe hepatitis)” value [10] was 0, the “Hepatotoxicity (steatosis)” value [11] was 0 and the “Hepatotoxicity (moderate)” value [12] was 34.8%. For the same molecule, the “Hepatotoxicity (moderate)” value [13] was 8 and the “Hepatotoxicity (cirrhosis)” value [14] was 0.
With O=C1Cc2cc(CCN3CCN(c4nsc5ccccc45)CC3)c(Cl)cc2N1 [ZIPRASIDONE] the “Hepatotoxicity (acute)” value [1] was 0%, the “Hepatotoxicity (choleostasis)” value [2] was 0 and the “Hepatotoxicity (cytolytic)” value [3] was 0. The “Hepatotoxicity (acute)” value [4] was 0, the “Hepatotoxicity (granulomatous hepatitis)” value [5] was 0 and the “Hepatotoxicity (association with vascular disease)” value [6] was 0. For the same molecule, the “Hepatotoxicity (benign tumour)” value [7] was 0, the “Hepatotoxicity (chronic liver disease)” value [8] was 0 and the “Hepatotoxicity (malignant tumour)” value [9] was 0. The “Hepatotoxicity (severe hepatitis)” value [10] was 0, the “Hepatotoxicity (steatosis)” value [11] was 0 and the “Hepatotoxicity (moderate)” value [12] was 1.2%. The “Hepatotoxicity (moderate)” value [13] was 1 and the “Hepatotoxicity (cirrhosis)” value [14] was 0.
